In patent US8337835B2, “Use of an endogenous ligand for peroxisome proliferator activated receptor alpha to treat liver disorders” (priority 2009, dated 2012):

Target: T1, PPARγ LBD (Homo sapiens, UniProt P37231)
T1 construct: Identical experiments were performed using the PPARδ and PPARγ LBDs; 6xHis; made in house
T1 sequence (P37231 238-503 limits assumed): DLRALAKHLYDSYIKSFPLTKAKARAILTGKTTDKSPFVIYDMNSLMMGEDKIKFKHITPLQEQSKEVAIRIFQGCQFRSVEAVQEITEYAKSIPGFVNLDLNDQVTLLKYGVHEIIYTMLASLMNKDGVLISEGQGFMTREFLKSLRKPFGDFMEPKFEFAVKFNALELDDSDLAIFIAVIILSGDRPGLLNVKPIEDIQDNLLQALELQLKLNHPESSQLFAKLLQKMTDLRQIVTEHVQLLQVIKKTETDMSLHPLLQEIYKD
Test: ALPHASCREEN binding assay, PPARγ ligand binding domain
Conditions: 5 μM
Procedure: Binding of 16:0/18:1-GPC and known agonists to the ligand binding domain (LBD) of PPARα in the presence of various peptide motifs was determined by ALPHASCREEN™ assay (Proc Natl Acad Sci USA 105, pp. 5034-5039, 2008). Experiments used 100 nM receptor LBD, purified as 6× His tag fusion proteins (Mol Cell 17, pp. 491-502, 2005), and 20 nM of N-terminal biotinylated CBP1 peptide or other coactivator peptides in the presence of 5 μg/ml donor and acceptor beads in 50 mM MOPS (pH 7.4), 100 mM NaCl, and 0.1 mg/ml BSA for 90 min at 25° C. Signals were generated in the absence or the presence of ligand. Identical experiments were performed using the PPARδ and PPARγ LBDs.
Stealth™ siRNA oligonucleotides were used to inhibit the gene expression of mouse ChPT1 ([…]) (SEQ ID NO: 1) and CEPT1 ([…]) (SEQ ID NO: 2) were from Invitrogen (Carlsbad, Calif.). […] Expression of ACO and CPT-1 was also assessed 24 h after addition of 50 μM 16:0/18:1-GPC in a subset of Hepa 1-6 cells previously treated with CEPT1 siRNA. mRNA levels are normalized to control L32 ribosomal mRNA. […] FIGS. 6F-H show the binding of various peptide motifs to the purified PPARα (FIG. 6F), PPARδ (FIG. 6G), and PPARγ (FIG. 6H) LBD in the presence of 5 μM of the corresponding PPAR agonist or 16:0/18:1-GPC as measured by AlphaScreen assays. […]

SMILES: CCCCCCCC/C=C\CCCCCCCC(=O)O[C@H](COC(=O)CCCCCCCCCCCCCCC)COP(=O)([O-])OCC[N+](C)(C)C [16:0/18:1-GPC, 1-palmitoyl-2-oleoyl-sn-glycerol-3-phosphocholine]
- binding to PPARγ: does not appear to bind
